In assay [1] the target is human JAK1 (a.a. 837-1142) (Homo sapiens, UniProt P23458). Nature of the assay: In vitro JAK kinase assay (Example D), JAK1. The settings on record: 1 mM ATP. The class given is biochemical.
A further assay has as its target JAK2 (a.a. 828-1132) (Homo sapiens (Human), UniProt O60674). Nature of the assay: In vitro JAK kinase assay (Example D), JAK2. Format: biochemical. To be noted: ratio JAK2/JAK1 of IC50s, 1 mM ATP.

Sequence of JAK2 (a.a. 828-1132) (O60674 828-1132): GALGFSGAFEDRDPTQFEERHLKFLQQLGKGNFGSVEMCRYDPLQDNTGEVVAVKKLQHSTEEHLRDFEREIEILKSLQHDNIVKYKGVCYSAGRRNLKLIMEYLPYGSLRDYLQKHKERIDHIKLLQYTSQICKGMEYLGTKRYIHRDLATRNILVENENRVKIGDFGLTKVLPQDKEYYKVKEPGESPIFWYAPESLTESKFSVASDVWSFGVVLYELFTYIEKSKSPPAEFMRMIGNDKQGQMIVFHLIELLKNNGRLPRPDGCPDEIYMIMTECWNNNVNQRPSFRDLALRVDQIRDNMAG

A word on the IC50: it is the midpoint of a concentration-inhibition curve. A high value points to lower potency. As to `N#CCC(C1CCN(c2nc3cccnc3o2)C1)n1cc(-c2ncnc3[nH]ccc23)cn1` (centres unmarked) [Form 4, 3-(1-[1,3]oxazolo[5,4-b]pyridin-2-ylpyrrolidin-3-yl)-3-[4-(7H-pyrrolo[2,3-d]pyrimidin-4-yl)-1H-pyrazol-1-yl]propanenitrile], in assay [1], the IC50 was less than 10 nM. The JAK2/JAK1 at JAK2 (a.a. 828-1132) is greater than 10.

The molecule `N#CC[C@]1(n2cc(-c3ncnc4[nH]ccc34)cn2)C[C@H](N2CCC(Oc3cc(CN4CCC[C@H]4CO)cc(C(F)(F)F)n3)CC2)C1` [Form 12, {trans-3-(4-{[4-{[(2S)-2-(hydroxymethyl)pyrrolidin-1-yl]methyl}-6-(trifluoromethyl)pyridin-2-yl]oxy}piperidin-1-yl)-1-[4-(7H-pyrrolo[2,3-d]pyrimidin-4-yl)-1H-pyrazol-1-yl]cyclobutyl}acetonitrile] displayed an IC50 in assay [1] of less than 10 nM. Besides, the JAK2/JAK1 at JAK2 (a.a. 828-1132) is listed as greater than 10.

On to `N#CC[C@]1(n2cc(-c3ncnc4[nH]ccc34)cn2)C[C@H](N2CCN(C(=O)c3ccnc(C(F)(F)F)n3)CC2)C1` [Form 10, [trans-1-[4-(7H-pyrrolo[2,3-d]pyrimidin-4-yl)-1H-pyrazol-1-yl]-3-(4-{[2-(trifluoromethyl)pyrimidin-4-yl]carbonyl}piperazin-1-yl)cyclobutyl]acetonitrile], for which the IC50 in assay [1] was less than 10 nM. Also, at JAK2 (a.a. 828-1132), the JAK2/JAK1 is given as greater than 10.

In turn, `N#CC[C@]1(n2cc(-c3ncnc4[nH]ccc34)cn2)C[C@H](N2CCC(Oc3cc(CN4CCC[C@@H]4CO)cc(C(F)(F)F)n3)CC2)C1` [Form 13, {trans-3-(4-{[4-{[(2R)-2-(hydroxymethyl)pyrrolidin-1-yl]methyl}-6-(trifluoromethyl)pyridin-2-yl]oxy}piperidin-1-yl)-1-[4-(7H-pyrrolo[2,3-d]pyrimidin-4-yl)-1H-pyrazol-1-yl]cyclobutyl}acetonitrile] displayed an IC50 in assay [1] of less than 10 nM. Also, the JAK2/JAK1 at JAK2 (a.a. 828-1132) is given as greater than 10.

Take `C[C@H](NC(=O)c1cc(F)c(N2CC(CC#N)(n3cc(-c4ncnc5[nH]ccc45)cn3)C2)cc1F)C(F)(F)F` [Form 16, 4-{3-(cyanomethyl)-3-[4-(7H-pyrrolo[2,3-d]pyrimidin-4-yl)-1H-pyrazol-1-yl]azetidin-1-yl}-2,5-difluoro-N-[(1S)-2,2,2-trifluoro-1-methylethyl]benzamide]: the IC50 in assay [1] is less than 10 nM. Moreover, the JAK2/JAK1 on JAK2 (a.a. 828-1132) was greater than 10.

In assay [1], `N#CCC1(n2cc(-c3ncnc4[nH]ccc34)cn2)CN([C@H]2CC[C@@H](Oc3cc(CN4CC[C@@H](O)C4)cc(C(F)(F)F)n3)CC2)C1` [Form 21, {1-(cis-4-{[4-{[(3R)-3-hydroxypyrrolidin-1-yl]methyl}-6-(trifluoromethyl)pyridin-2-yl]oxy}cyclohexyl)-3-[4-(7H-pyrrolo[2,3-d]pyrimidin-4-yl)-1H-pyrazol-1-yl]azetidin-3-yl}acetonitrile] registered an IC50 of less than 10 nM. For the same molecule, on JAK2 (a.a. 828-1132), the JAK2/JAK1 is reported as greater than 10.

Molecule `C[C@@H](O)c1nc2cnc3ccsc3c2n1[C@H]1CC[C@H](CC#N)OC1` [Form 1, ((2R,5S)-5-{2-[(1R)-1-hydroxyethyl]-1H-imidazo[4,5-d]thieno[3,2-b]pyridin-1-yl}tetrahydro-2H-pyran-2-yl)acetonitrile] gave an IC50 in assay [1] of less than 100 nM. Besides, the JAK2/JAK1 at JAK2 (a.a. 828-1132) is greater than 10.

On to `C[C@H](O)CNCc1cc(OC2CCN([C@H]3C[C@](CC#N)(n4cc(-c5ncnc6[nH]ccc56)cn4)C3)CC2)nc(C(F)(F)F)c1` [Form 25, {trans-3-(4-([4-({[(2S)-2-hydroxypropyl]amino}methyl)-6-(trifluoromethyl)pyridin-2-yl]oxy}piperidin-1-yl)-1-[4-(7H-pyrrolo[2,3-d]pyrimidin-4-yl)-1H-pyrazol-1-yl]cyclobutyl}acetonitrile], for which, in assay [1], the IC50 is less than 10 nM. Moreover, on JAK2 (a.a. 828-1132), the JAK2/JAK1 is recorded as greater than 10.

Regarding `N#CCC(CN1CCN(C(=O)c2ccc(C#N)cc2F)CC1)n1cc(-c2ncnc3[nH]ccc23)cn1` (centres unmarked) [Form 5, 4-[(4-{3-cyano-2-[4-(7H-pyrrolo[2,3-d]pyrimidin-4-yl)-1H-pyrazol-1-yl]propyl}piperazin-1-yl)carbonyl]-3-fluorobenzonitrile], the IC50 in assay [1] is less than 10 nM. Further, at JAK2 (a.a. 828-1132), the JAK2/JAK1 is reported as greater than 10.

Turning to `N#CCC1(n2cc(-c3ncnc4[nH]ccc34)cn2)CN(C2CCN(C(=O)c3ccnc(C(F)(F)F)c3F)CC2)C1` [Form 7, {1-{1-[3-Fluoro-2-(trifluoromethyl)isonicotinoyl]piperidin-4-yl}-3-[4-(7H-pyrrolo[2,3-d]pyrimidin-4-yl)-1H-pyrazol-1-yl]azetidin-3-yl}acetonitrile], in assay [1], the IC50 is less than 10 nM. The JAK2/JAK1 on JAK2 (a.a. 828-1132) is on record as greater than 10.

`N#CC[C@]1(n2cc(-c3ncnc4[nH]ccc34)cn2)C[C@H](N2CCC(Oc3cc(CCO)cc(C(F)(F)F)n3)CC2)C1` [Form 26, {trans-3-(4-{[4-(2-hydroxyethyl)-6-(trifluoromethyl)pyridin-2-yl]oxy}piperidin-1-yl)-1-[4-(7H-pyrrolo[2,3-d]pyrimidin-4-yl)-1H-pyrazol-1-yl]cyclobutyl}acetonitrile] gave an IC50 in assay [1] of less than 10 nM. Besides, the JAK2/JAK1 at JAK2 (a.a. 828-1132) is on record as greater than 10.

Molecule `N#CCC1(n2cc(-c3ncnc4[nH]ccc34)cn2)CN([C@H]2CC[C@@H](Oc3cc(CCO)nc(C(F)(F)F)n3)CC2)C1` [Form 18, {1-(cis-4-{[6-(2-hydroxyethyl)-2-(trifluoromethyl)pyrimidin-4-yl]oxy}cyclohexyl)-3-[4-(7H-pyrrolo[2,3-d]pyrimidin-4-yl)-1H-pyrazol-1-yl]azetidin-3-yl}acetonitrile] gave an IC50 in assay [1] of less than 10 nM. On JAK2 (a.a. 828-1132), the JAK2/JAK1 is recorded as greater than 10.

Consider `N#CCC1(n2cc(-c3ncnc4[nH]ccc34)cn2)CN(C2CCN(C(=O)c3ccnc(C(F)(F)F)n3)CC2)C1` [Form 9, [3-[4-(7H-pyrrolo[2,3-d]pyrimidin-4-yl)-1H-pyrazol-1-yl]-1-(1-{[2-(trifluoromethyl)pyrimidin-4-yl]carbonyl}piperidin-4-yl)azetidin-3-yl]acetonitrile], for which, in assay [1], the IC50 was less than 10 nM. Moreover, the JAK2/JAK1 at JAK2 (a.a. 828-1132) is reported as greater than 10.

Regarding `N#CCC(C1CCN(c2cccc(Cl)n2)C1)n1cc(-c2ncnc3[nH]ccc23)cn1` (single isomer, unassigned) [Form 3, 3-[1-(6-chloropyridin-2-yl)pyrrolidin-3-yl]-3-[4-(7H-pyrrolo[2,3-d]pyrimidin-4-yl)-1H-pyrazol-1-yl]propanenitrile], the IC50 in assay [1] was less than 10 nM. Besides, the JAK2/JAK1 at JAK2 (a.a. 828-1132) was greater than 10.

`C[C@@H](CO)NCc1cc(OC2CCN([C@H]3C[C@](CC#N)(n4cc(-c5ncnc6[nH]ccc56)cn4)C3)CC2)nc(C(F)(F)F)c1` [Form 23, {trans-3-(4-{[4-({[(1S)-2-hydroxy-1-methylethyl]amino}methyl)-6-(trifluoromethyl)pyridin-2-yl]oxy}piperidin-1-yl)-1-[4-(7H-pyrrolo[2,3-d]pyrimidin-4-yl)-1H-pyrazol-1-yl]cyclobutyl}acetonitrile]: the IC50 in assay [1] is less than 10 nM. The JAK2/JAK1 on JAK2 (a.a. 828-1132) is on record as greater than 10.

`N#CCC1(n2cc(-c3ncnc4[nH]ccc34)cn2)CN([C@H]2CC[C@@H](Oc3cc(CN4CC[C@H](O)C4)cc(C(F)(F)F)n3)CC2)C1` [Form 22, {1-(cis-4-{[4-{[(3S)-3-hydroxypyrrolidin-1-yl]methyl}-6-(trifluoromethyl)pyridin-2-yl]oxy}cyclohexyl)-3-[4-(7H-pyrrolo[2,3-d]pyrimidin-4-yl)-1H-pyrazol-1-yl]azetidin-3-yl}acetonitrile] returned an IC50 in assay [1] of less than 10 nM. For the same molecule, the JAK2/JAK1 at JAK2 (a.a. 828-1132) is given as greater than 10.

The molecule `CCNCc1cc(O[C@H]2CC[C@@H](N3CC(CC#N)(n4cc(-c5ncnc6[nH]ccc56)cn4)C3)CC2)nc(C(F)(F)F)c1` [Form 19, {1-(cis-4-{[4-[(ethylamino)methyl]-6-(trifluoromethyl)pyridin-2-yl]oxy}cyclohexyl)-3-[4-(7H-pyrrolo[2,3-d]pyrimidin-4-yl)-1H-pyrazol-1-yl]azetidin-3-yl}acetonitrile] gave an IC50 in assay [1] of less than 10 nM. The JAK2/JAK1 at JAK2 (a.a. 828-1132) is listed as greater than 10.

Regarding `CC(C)(O)c1cc(O[C@H]2CC[C@@H](N3CC(CC#N)(n4cc(-c5ncnc6[nH]ccc56)cn4)C3)CC2)nc(C(F)(F)F)c1` [Form 20, {1-(cis-4-{[4-(1-hydroxy-1-methylethyl)-6-(trifluoromethyl)pyridin-2-yl]oxy}cyclohexyl)-3-[4-(7H-pyrrolo[2,3-d]pyrimidin-4-yl)-1H-pyrazol-1-yl]azetidin-3-yl}acetonitrile], in assay [1], the IC50 is less than 10 nM. On JAK2 (a.a. 828-1132), the JAK2/JAK1 is recorded as greater than 10.

`N#CCC1(n2cc(-c3ncnc4[nH]ccc34)cn2)CN(C2CCN(C(=O)Nc3ccc(F)cc3C(F)(F)F)CC2)C1` [Form 8, 4-{3-(Cyanomethyl)-3-[4-(7H-pyrrolo[2,3-d]pyrimidin-4-yl)-1H-pyrazol-1-yl]azetidin-1-yl}-N-[4-fluoro-2-(trifluoromethyl)phenyl]piperidine-1-carboxamide] returned an IC50 in assay [1] of less than 10 nM. In addition, the JAK2/JAK1 at JAK2 (a.a. 828-1132) is given as greater than 10.

`C[C@@H](O)CNCc1cc(OC2CCN([C@H]3C[C@](CC#N)(n4cc(-c5ncnc6[nH]ccc56)cn4)C3)CC2)nc(C(F)(F)F)c1` [Form 24, {trans-3-(4-{[4-({[(2R)-2-hydroxypropyl]amino}methyl)-6-(trifluoromethyl)pyridin-2-yl]oxy}piperidin-1-yl)-1-[4-(7H-pyrrolo[2,3-d]pyrimidin-4-yl)-1H-pyrazol-1-yl]cyclobutyl}acetonitrile] showed an IC50 in assay [1] of less than 10 nM. Also, the JAK2/JAK1 at JAK2 (a.a. 828-1132) was greater than 10.

As to `N#CCC(CN1CCN(C(=O)c2ccc(C#N)cc2F)CC1)n1ccc(-c2ncnc3[nH]ccc23)c1` (centres unmarked) [Form 6, 4-[(4-{3-cyano-2-[3-(7H-pyrrolo[2,3-d]pyrimidin-4-yl)-1H-pyrrol-1-yl]propyl}piperazin-1-yl)carbonyl]-3-fluorobenzonitrile], the IC50 in assay [1] was less than 10 nM. The JAK2/JAK1 on JAK2 (a.a. 828-1132) is greater than 10.

For `N#CC[C@]1(n2cc(-c3ncnc4[nH]ccc34)cn2)C[C@H](N2CCC(Oc3cc(CN4CC(O)C4)cc(C(F)(F)F)n3)CC2)C1` [Form 11, {trans-3-(4-{[4-[(3-hydroxyazetidin-1-yl)methyl]-6-(trifluoromethyl)pyridin-2-yl]oxy}piperidin-1-yl)-1-[4-(7H-pyrrolo[2,3-d]pyrimidin-4-yl)-1H-pyrazol-1-yl]cyclobutyl}acetonitrile], the IC50 in assay [1] is less than 10 nM. For the same molecule, at JAK2 (a.a. 828-1132), the JAK2/JAK1 is greater than 10.
